# Tested on: PC3 cells
# Assay: NAMPT Cell Proliferation Assay
# Format: cell-based
# Conditions: Homo sapiens, PC-3, 120 h, 5 days incubation, cell viability by Cell Titer Glo
# Summary of the method: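 Proliferation of PC3 cells treated 5 days with a 10-fold compound series (top 10 μM) was quantified by Cell Titer Glo luminescence; IC50s were fitted from percent inhibition.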
row,Compound,IC50
1,"CCC1CCCCN1C(=O)C(=O)N1CCC(c2ccc(NC(=O)NCc3ccn4ccnc4c3)cc2)CC1 (stereo not shown) [Example 1150, 1-(4-{1-[(2-ethylpiperidin-1-yl)(oxo)acetyl]piperidin-4-yl}phenyl)-3-(imidazo[1,2-a]pyridin-7-ylmethyl)urea]",64.1 nM
2,"Cn1c(C(=O)N2CCC(c3ccc(C(=O)NCc4ccn5ccnc5c4)cc3)CC2)cc2occc21 [Example 995, N-(imidazo[1,2-a]pyridin-7-ylmethyl)-4-{1-[(4-methyl-4H-furo[3,2-b]pyrrol-5-yl)carbonyl]piperidin-4-yl}benzamide]",10.8 nM
3,"CC(C)n1ccc(C(=O)N2CCC(c3ccc(NC(=O)NCc4ccn5ccnc5c4)cc3)CC2)n1 [Example 1011, 1-(imidazo[1,2-a]pyridin-7-ylmethyl)-3-[4-(1-{[1-(propan-2-yl)-1H-pyrazol-3-yl]carbonyl}piperidin-4-yl)phenyl]urea]",1.97 nM
4,"O=C(NCc1ccn2ccnc2c1)c1ccc(C2CCN(C(=O)COc3ccc(F)cc3)CC2)cc1 [Example 918, 4-{1-[(4-fluorophenoxy)acetyl]piperidin-4-yl}-N-(imidazo[1,2-a]pyridin-7-ylmethyl)benzamide]",233 nM
5,"Cc1cc(C(=O)N2CCC(c3ccc(C(=O)NCc4ccn5ccnc5c4)cc3)CC2)cnc1C [Example 1007, 4-{1-[(5,6-dimethylpyridin-3-yl)carbonyl]piperidin-4-yl}-N-(imidazo[1,2-a]pyridin-7-ylmethyl)benzamide]",37.3 nM
6,"O=C(NCc1ccc2ncnn2c1)c1ccc(C2CCN(C(=O)C3CCC(F)(F)CC3)CC2)s1 [Example 848, 5-{1-[(4,4-difluorocyclohexyl)carbonyl]piperidin-4-yl}-N-([1,2,4]triazolo[1,5-a]pyridin-6-ylmethyl)thiophene-2-carboxamide]",29.2 nM
7,"Cc1cc(C(=O)N2CCC(c3ccc(NC(=O)NCc4ccn5ccnc5c4)cc3)CC2)cnc1C [Example 1059, 1-(4-{1-[(5,6-dimethylpyridin-3-yl)carbonyl]piperidin-4-yl}phenyl)-3-(imidazo[1,2-a]pyridin-7-ylmethyl)urea]",16.4 nM
8,"CC(C)CC1CCCN1C(=O)c1ccc(C(=O)NCc2ccn3ccnc3c2)cc1 (stereo not shown) [Example 877, N-(imidazo[1,2-a]pyridin-7-ylmethyl)-4-{[2-(2-methylpropyl)pyrrolidin-1-yl]carbonyl}benzamide]",> 10000 nM
9,"O=C(NCc1ccn2ccnc2c1)Nc1ccc(C2CCN(C(=O)c3cnc4c(c3)CCCC4)CC2)cc1 [Example 1035, 1-(imidazo[1,2-a]pyridin-7-ylmethyl)-3-{4-[1-(5,6,7,8-tetrahydroquinolin-3-ylcarbonyl)piperidin-4-yl]phenyl}urea]",3.04 nM
10,"COc1ncccc1/C=C/C(=O)N1CCC(c2ccc(C(=O)NCc3ccn4ccnc4c3)cc2)CC1 [Example 990, N-(imidazo[1,2-a]pyridin-7-ylmethyl)-4-{1-[(2E)-3-(2-methoxypyridin-3-yl)prop-2-enoyl]piperidin-4-yl}benzamide]",17.9 nM
11,"CC(C)(C)OC(=O)N1CCC(c2ccc(C(=O)NCc3ccc4nccn4n3)cc2)CC1 [Example 855, tert-butyl 4-{4-[(imidazo[1,2-b]pyridazin-6-ylmethyl)carbamoyl]phenyl}piperidine-1-carboxylate]",111 nM
12,"O=C(NCc1ccn2ccnc2c1)c1ccc(C2CCN(C(=O)c3ncccc3Cl)CC2)cc1 [Example 965, 4-{1-[(3-chloropyridin-2-yl)carbonyl]piperidin-4-yl}-N-(imidazo[1,2-a]pyridin-7-ylmethyl)benzamide]",8.31 nM
13,"Cc1cccn2cc(C(=O)N3CCC(c4ccc(C(=O)NCc5ccn6ccnc6c5)cc4)CC3)nc12 [Example 992, N-(imidazo[1,2-a]pyridin-7-ylmethyl)-4-{1-[(8-methylimidazo[1,2-a]pyridin-2-yl)carbonyl]piperidin-4-yl}benzamide]",584 nM
14,"O=C(NCc1ccn2ccnc2c1)Nc1ccc(C2CCN(C(=O)c3ccnn3C3CCCC3)CC2)cc1 [Example 1137, 1-(4-{1-[(1-cyclopentyl-1H-pyrazol-5-yl)carbonyl]piperidin-4-yl}phenyl)-3-(imidazo[1,2-a]pyridin-7-ylmethyl)urea]",0.277 nM
15,"CC(C)(C)OC(=O)N1CCC(c2ccc(NC(=O)NCc3ccn4ccnc4c3)c(F)c2)CC1 [Example 912, tert-butyl 4-(3-fluoro-4-{[(imidazo[1,2-a]pyridin-7-ylmethyl)carbamoyl]amino}phenyl)piperidine-1-carboxylate]",8.72 nM
16,"O=C(NCc1cn2ccnc2cn1)c1ccc(C2CCN(S(=O)(=O)c3ccccc3)CC2)cc1 [Example 864, N-(imidazo[1,2-a]pyrazin-6-ylmethyl)-4-[1-(phenylsulfonyl)piperidin-4-yl]benzamide]",67.2 nM
17,"O=C(NCc1ccc2nccn2c1)c1ccc(S(=O)(=O)c2ccccc2)cc1 [Example 898, N-(imidazo[1,2-a]pyridin-6-ylmethyl)-4-(phenylsulfonyl)benzamide]",223 nM

row,Compound,IC50
1,"O=C(CC1CCCC1)Nc1ccc(C(=O)NCc2ccc3nccn3n2)cc1 [Example 856, 4-[(cyclopentylacetyl)amino]-N-(imidazo[1,2-b]pyridazin-6-ylmethyl)benzamide]",657 nM
2,"O=C(NCc1ccn2ccnc2c1)c1ccc(C2CCN(C(=O)c3ccn(C4CCCC4)n3)CC2)cc1 [Example 967, 4-{1-[(1-cyclopentyl-1H-pyrazol-3-yl)carbonyl]piperidin-4-yl}-N-(imidazo[1,2-a]pyridin-7-ylmethyl)benzamide]",3.96 nM
3,"O=C(NCc1ccn2ccnc2c1)c1ccc(C2CCN(C(=O)c3cncc4ccccc34)CC2)cc1 [Example 979, N-(imidazo[1,2-a]pyridin-7-ylmethyl)-4-[1-(isoquinolin-4-ylcarbonyl)piperidin-4-yl]benzamide]",75.7 nM
4,"O=C(NCc1cn2ccnc2cn1)c1ccc(C2CCN(C(=O)CCC(F)(F)F)CC2)s1 [Example 840, N-(imidazo[1,2-a]pyrazin-6-ylmethyl)-5-[1-(4,4,4-trifluorobutanoyl)piperidin-4-yl]thiophene-2-carboxamide]",2.75 nM
5,"O=C(Cc1ccccc1F)Nc1ccc(C(=O)NCc2ccn3ccnc3c2)cc1 [Example 876, 4-{[(2-fluorophenyl)acetyl]amino}-N-(imidazo[1,2-a]pyridin-7-ylmethyl)benzamide]",47.7 nM
6,"CC(C)(O)C(=O)N1CCC(c2ccc(C(=O)NCc3ccc4ncnn4c3)s2)CC1 [Example 850, 5-[1-(2-hydroxy-2-methylpropanoyl)piperidin-4-yl]-N-([1,2,4]triazolo[1,5-a]pyridin-6-ylmethyl)thiophene-2-carboxamide]",54 nM
7,"CC(C)(C(=O)N1CCC(c2ccc(C(=O)NCc3ccn4ccnc4c3)s2)CC1)N1CCNCC1 [Example 879, N-(imidazo[1,2-a]pyridin-7-ylmethyl)-5-{1-[2-methyl-2-(piperazin-1-yl)propanoyl]piperidin-4-yl}thiophene-2-carboxamide]",63.3 nM
8,"CC(C)(C)Cn1cc(-c2ccc(C(=O)NCc3cn4ccnc4cn3)s2)cn1 [Example 858, 5-[1-(2,2-dimethylpropyl)-1H-pyrazol-4-yl]-N-(imidazo[1,2-a]pyrazin-6-ylmethyl)thiophene-2-carboxamide]",0.59 nM
9,"N#Cc1ccc(F)c(C(=O)N2CCC(c3ccc(C(=O)NCc4ccn5ccnc5c4)cc3)CC2)c1 [Example 985, 4-[1-(5-cyano-2-fluorobenzoyl)piperidin-4-yl]-N-(imidazo[1,2-a]pyridin-7-ylmethyl)benzamide]",28.3 nM
10,"O=C(NCc1ccn2ccnc2c1)Nc1ccc(C2CCN(C(=O)c3ccc4occc4c3)CC2)cc1 [Example 1144, 1-{4-[1-(1-benzofuran-5-ylcarbonyl)piperidin-4-yl]phenyl}-3-(imidazo[1,2-a]pyridin-7-ylmethyl)urea]",9.6 nM
11,"CC1(Cn2cc(-c3ccc(C(=O)NCc4cn5ccnc5cn4)s3)cn2)CCOCC1 [Example 861, N-(imidazo[1,2-a]pyrazin-6-ylmethyl)-5-{1-[(4-methyltetrahydro-2H-pyran-4-yl)methyl]-1H-pyrazol-4-yl}thiophene-2-carboxamide]",0.574 nM
12,"O=C(NCc1ccn2ccnc2c1)c1ccc(NC(=O)C(F)(F)c2ccccc2)cc1 [Example 895, 4-{[difluoro(phenyl)acetyl]amino}-N-(imidazo[1,2-a]pyridin-7-ylmethyl)benzamide]",730 nM
13,"CC(C)(CN)Cn1cc(-c2ccc(C(=O)NCc3ccn4ccnc4c3)s2)cn1 [Example 1083, 5-[1-(3-amino-2,2-dimethylpropyl)-1H-pyrazol-4-yl]-N-(imidazo[1,2-a]pyridin-7-ylmethyl)thiophene-2-carboxamide]",0.92 nM
14,"O=C(NCc1cn2ccnc2cn1)c1ccc(-c2cnn(CCN3CCNCC3)c2)s1 [Example 894, N-(imidazo[1,2-a]pyrazin-6-ylmethyl)-5-{1-[2-(piperazin-1-yl)ethyl]-1H-pyrazol-4-yl}thiophene-2-carboxamide]",202 nM
15,"O=C(NCc1ccc2ncnn2c1)c1ccc(C2CCN(C(=O)c3ccc(F)cc3)CC2)s1 [Example 833, 5-[1-(4-fluorobenzoyl)piperidin-4-yl]-N-([1,2,4]triazolo[1,5-a]pyridin-6-ylmethyl)thiophene-2-carboxamide]",70 nM
16,"O=C(NCc1ccn2ccnc2c1)c1ccc(C2CCN(C(=O)c3nc4c(s3)CCCC4)CC2)cc1 [Example 1000, N-(imidazo[1,2-a]pyridin-7-ylmethyl)-4-[1-(4,5,6,7-tetrahydro-1,3-benzothiazol-2-ylcarbonyl)piperidin-4-yl]benzamide]",81.8 nM
17,"O=C(NCc1ccn2ccnc2c1)Nc1ccc(C2CCN(C(=O)c3ccnn3C(F)F)CC2)cc1 [Example 1022, 1-[4-(1-{[1-(difluoromethyl)-1H-pyrazol-5-yl]carbonyl}piperidin-4-yl)phenyl]-3-(imidazo[1,2-a]pyridin-7-ylmethyl)urea]",2.93 nM

# From patent publication US9187472B2 (AbbVie Inc., priority 2012, dated 2015)
